Test results from patent US20180280302A1, “SOLID DISPERSIONS OF COMPOUNDS USING POLYVINYL ALCOHOL AS A CARRIER POLYMER” (MERCK PATENT GMBH, priority 2015, published 2018).

Columns and labels:
[1] = cited from earlier work
[2] = Dissolution of IBU compositions in SGFsp pH 1.2 (USP apparatus II, fiber-optic UV); type: physicochemical; settings: at 2 hours
Procedure: All dissolution tests were conducted in a Vankel VK-7000 (Varian, Inc.) USP apparatus II (paddle) dissolution tester. The dissolution medium was maintained at 37° C. with a recirculating heater and a paddle speed of 75 RPM was constant throughout the test. The theoretical equivalent of 200 mg of IBU (1.0 g of KSD product) was added to each vessel containing 1 L of the dissolution medium (n=3). […] The dissolution medium recipe (SGFsp) consisted of 2.0 g NaCl and 80 ml of 0.1 N HCl in a total of 1 L of purified water (pH=1.2). The dissolution medium was degassed prior to testing by the heat/sonication method.
The concentration of IBU in solution during the 120 minute dissolution test (shown in Table 10) was measured once per minute using a Pion Spectra in-situ fiber-optic UV-diss system (Pion, Inc., Billerica, Mass.) with a 1 mm path length probe tip. Concentrations were determined by integrating the area under the UV absorption curve in a wavelength range of 216 to 222 nm with a baseline correction at 450 nm. Linearity was established over a range of 1.4 to 200 μg/ml with a correlation coefficient of 0.9992. A diluents consisting of 7:3 (V/V) SGFsp:Acetonitrile (HPLC grade, no UV absorption beyond 190 nm) was used to generate the IBU standard curve.

For `Cc1ccnc2c1NC(=O)c1cccnc1N2C1CC1` [Nevirapine], the pKa [1] is given as 2.8.

With `CC(C)Cc1ccc(C(C)C(=O)O)cc1` (stereo not drawn) [Pure Ibuprofen, Ibuprofen] the final concentration [2] was > 0.02 mg/mL.

For Acetriptan, the pKa [1] is given as 4.9.
